Laboratory results from US20240247253A1, “PRODUCTION METHOD OF POLYPEPTIDE, TAG, EXPRESSION VECTOR, EVALUATION METHOD OF POLYPEPTIDE, PRODUCTION METHOD OF NUCLEIC ACID DISPLAY LIBRARY, AND SCREENING METHOD” (FUJIFILM Corporation, priority 2021, published 2024).
Ends that are not written are not given here. * marks the point of attachment. ClAc = O=C(CCl)*

B1: chemically synthesized integrin binding peptide (SEQ ID NO: 126) (peptide)
peptide: CEPRGDNYRK(ClAc)GGSKKK
notes: Immobilized on a CM5 chip by amine coupling; also called CEPRGDNYRXGGSKKK

Key:
[1] = tested on: cell-free peptide synthesis system derived from Escherichia coli; assay: Cell-free biosynthesis of the integrin binding peptide fusion protein with N-terminal tag, 1 hour reaction, amount measured by ELISA; format: biochemical; conditions: fusion protein SEQ ID NO: 5; for Biosynthesis amount of fusion protein: relative value, control example without tag = 1, 37° C. for 1 hour, average of two measurements
From the text: In the cell-free peptide synthesis system derived from Escherichia coli, the effect of the VKKX tag on the biosynthesis amount of the polypeptide was examined. As a polypeptide to be biosynthesized, an integrin binding peptide containing cysteine and chloroacetyl lysine was selected. In this polypeptide, a thiol group of cysteine and a chloroacetyl group of chloroacetyl lysine spontaneously form a thioether bond to become a cyclic polypeptide.
A fusion protein in which an integrin binding peptide, a Myc tag, and a HiBiT tag were linked in this order was designed. As a spacer, Gly-Gly-Ser was inserted between the integrin binding peptide and the Myc tag and between the Myc tag and the HiBiT tag. The amino acid sequence of this fusion protein is SEQ ID NO: 5, and the base sequence encoding this fusion protein is SEQ ID NO: 6. In SEQ ID NO: 5, the integrin binding peptide ranges to the amino acid at the twelfth position (that is, alanine) from an N-terminal, and the amino acid at eleventh position from the N-terminal is chloroacetyl lysine. The triplet TAG at the positions 31 to 33 from the 5′ terminal of the base sequence set forth in SEQ ID NO: 6 was assigned to the codon of chloroacetyl lysine. The end of the base sequence set forth in SEQ ID NO: 6 is the stop codon TAA.
A base sequence encoding a tagged fusion protein in which methionine, a VKKX tag (any of SEQ ID nOs: 7 to 52), and a fusion protein (SEQ ID NO: 5) were linked in this order was designed. In this base sequence, a base sequence (any of SEQ ID nOs: 53 to 98) encoding a VKKX tag is arranged immediately after the start codon ATG, and a base sequence encoding a fusion protein immediately after the base sequence (SEQ ID NO: 6) encoding the VKKX tag is arranged.
As a control example for evaluating the effect of the VKKX tag, a base sequence in which a base sequence (SEQ ID NO: 6) encoding a fusion protein arranged immediately after the start codon ATG was designed.
In order to translate chloroacetyl lysine which is an unnatural amino acid, a tRNA in which the anticodon was CUA and paired with the UAG codon of mRNA was prepared. This tRNA was aminoacylated with an N-chloroacetyl lysine hosphoro 2′ deoxyribocytidylylriboadenosine (pdCpA) ester. This aminoacyl tRNA is referred to as an Aminoacyl tRNA (1).
(§1) The cell-free biosynthesis of the polypeptide was carried out in a translation solution containing a template DNA, PUREfrex 2.0 (GeneFrontier, PF201-0.25-5), and Aminoacyl tRNA (1). 1.25 μL (62.5 ng) of the template DNA prepared to 50 ng/μL, 2.5 μL of PUREfrex 2.0 Solution I, 0.25 μL of Solution II, 0.5 μL of Solution III, and 0.5 μL of Aminoacyl tRNA (1) were mixed and mixture was subjected to a reaction at 37° ° C. for 1 hour.
The amount of the biosynthesized polypeptide was measured by ELISA. 50 ng of Recombinant Human Integrin αVβ3 (R&D systems, 3050-AV-050) was immobilized in each well of a 96-well plate and blocked with Blocker Casein in PBS (Thermo, 37528), and then a cell-free biosynthesis solution diluted with Can Get Signal Immunoreaction Enhancer Solution I (TOYOBO, NKB-101) containing 5 mmol/L MgCl2 was added thereto, and the mixture was subjected to a reaction at room temperature for 3 hours. After washing with 5 mmol/L MgCl2/0.05% Tween 20-containing phosphate buffered saline (PBS), an anti-Myc antibody (Cell Signaling, 14038S) diluted with Can Get Signal Immunoreaction Enhancer Solution II (TOYOBO, NKB-101) was added thereto, and the mixture was subjected to a reaction at room temperature for 2 hours. After washing with PBS containing 5 mmol/L MgCl2/0.05% Tween 20, Super Signal ELISA Femto Substrate (Thermo, 37075) was added thereto, and the luminescence was measured. The amount of the fusion protein in the cell-free biosynthesis solution was calculated based on a calibration curve created from the fusion protein having a known concentration. The luminescence measurement was performed twice, and the average value of the amounts of the fusion protein was calculated. […]

[2] = tested on: cell-free peptide synthesis system derived from Escherichia coli; assay: Cell-free biosynthesis of the integrin binding peptide fusion protein with tag, reaction time 10 minutes, ELISA; format: biochemical; conditions: relative value, control without tag = 1; reaction time 10 minutes; fusion protein SEQ ID NO: 5; SKIK encoded by SEQ ID NO: 110
Description: as §1
The amount of the biosynthesized polypeptide was measured by ELISA. 50 ng of Recombinant Human Integrin αVβ3 (R&D systems, 3050-AV-050) was immobilized in each well of a 96-well plate and blocked with Blocker Casein in PBS (Thermo, 37528), and then a cell-free biosynthesis solution diluted with Can Get Signal Immunoreaction Enhancer Solution I (TOYOBO, NKB-101) containing 5 mmol/L MgCl2 was added thereto, and the mixture was subjected to a reaction at room temperature for 3 hours. After washing with 5 mmol/L MgCl2/0.05% Tween 20-containing phosphate buffered saline (PBS), an anti-Myc antibody (Cell Signaling, 14038S) diluted with Can Get Signal Immunoreaction Enhancer Solution II (TOYOBO, NKB-101) was added thereto, and the mixture was subjected to a reaction at room temperature for 2 hours. After washing with PBS containing 5 mmol/L MgCl2/0.05% Tween 20, Super Signal ELISA Femto Substrate (Thermo, 37075) was added thereto, and the luminescence was measured. The amount of the fusion protein in the cell-free biosynthesis solution was calculated based on a calibration curve created from the fusion protein having a known concentration. The luminescence measurement was performed twice, and the average value of the amounts of the fusion protein was calculated. Table 2-1 and Table 2-2 show relative values of the biosynthesis amounts of respective fusion proteins in a case where the amount of the fusion protein of the control example was set to the reference value 1.
As a comparative control, a SKIK tag represented by SEQ ID NO: 107 was selected. The polypeptide to be biosynthesized is the fusion protein containing the integrin binding peptide, as in Example 1.
Using a template DNA including DNA sequences (SEQ ID NOs: 73 to 98) encoding VKKX tags represented by SEQ ID NOs: 27 to 52 produced in Example 1, and a DNA sequence (SEQ ID NO: 110) encoding a SKIK tag represented by SEQ ID NO: 107 produced in Example 2, the biosynthesis reaction was performed in the same manner as in Example 1 by setting the reaction time to 10 minutes. In the same manner in Example 1, the fusion protein was expressed by the cell-free peptide synthesis system and quantified by ELISA. The measurement was performed twice, and the average value of the amounts of the fusion protein was calculated. […] As control example used in Example 1, the control example of the reference value 1 has a form in which the base sequence (SEQ ID NO: 6) encoding the fusion protein is arranged immediately after the start codon ATG.

[3] = target: T1, Recombinant Human Integrin αVβ3 (R&D systems, 3050-AV-050) (human, UniProt P06756 31-992; P05106 27-718); assay: SPR (Biacore T-100): peptide immobilized on CM5 chip, integrin αVβ3 injected at 10, 30, 100, 300 nmol/L, 5 mmol/L MgCl2
T1 construct: Bought heterodimer
T1 sequence (P06756 31-992 limits assumed, chain 1 of 2): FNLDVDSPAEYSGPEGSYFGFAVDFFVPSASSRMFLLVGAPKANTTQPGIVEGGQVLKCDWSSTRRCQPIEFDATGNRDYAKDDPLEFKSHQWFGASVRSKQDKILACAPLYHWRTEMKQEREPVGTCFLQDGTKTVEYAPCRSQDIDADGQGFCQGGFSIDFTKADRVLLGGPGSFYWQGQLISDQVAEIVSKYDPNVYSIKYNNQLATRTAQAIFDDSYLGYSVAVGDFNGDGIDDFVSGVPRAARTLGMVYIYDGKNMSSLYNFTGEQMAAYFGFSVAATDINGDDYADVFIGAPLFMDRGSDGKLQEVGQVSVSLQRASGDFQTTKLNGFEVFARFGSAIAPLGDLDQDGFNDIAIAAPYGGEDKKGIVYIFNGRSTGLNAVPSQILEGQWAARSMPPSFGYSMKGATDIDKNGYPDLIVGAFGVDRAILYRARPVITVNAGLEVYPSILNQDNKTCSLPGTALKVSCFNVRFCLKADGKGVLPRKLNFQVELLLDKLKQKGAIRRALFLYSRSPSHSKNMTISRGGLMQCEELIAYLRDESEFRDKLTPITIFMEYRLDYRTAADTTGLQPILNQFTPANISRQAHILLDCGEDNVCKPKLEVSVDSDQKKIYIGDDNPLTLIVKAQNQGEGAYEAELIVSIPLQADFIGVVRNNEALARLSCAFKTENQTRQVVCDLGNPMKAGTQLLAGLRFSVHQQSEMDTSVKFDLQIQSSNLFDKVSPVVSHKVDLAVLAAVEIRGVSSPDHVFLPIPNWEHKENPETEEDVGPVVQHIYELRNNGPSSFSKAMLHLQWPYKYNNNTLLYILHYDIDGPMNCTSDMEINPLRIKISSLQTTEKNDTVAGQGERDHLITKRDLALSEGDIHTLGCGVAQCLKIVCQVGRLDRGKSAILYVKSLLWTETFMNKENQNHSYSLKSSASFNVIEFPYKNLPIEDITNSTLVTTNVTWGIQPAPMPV
T1 sequence (P05106 27-718 limits assumed, chain 2 of 2): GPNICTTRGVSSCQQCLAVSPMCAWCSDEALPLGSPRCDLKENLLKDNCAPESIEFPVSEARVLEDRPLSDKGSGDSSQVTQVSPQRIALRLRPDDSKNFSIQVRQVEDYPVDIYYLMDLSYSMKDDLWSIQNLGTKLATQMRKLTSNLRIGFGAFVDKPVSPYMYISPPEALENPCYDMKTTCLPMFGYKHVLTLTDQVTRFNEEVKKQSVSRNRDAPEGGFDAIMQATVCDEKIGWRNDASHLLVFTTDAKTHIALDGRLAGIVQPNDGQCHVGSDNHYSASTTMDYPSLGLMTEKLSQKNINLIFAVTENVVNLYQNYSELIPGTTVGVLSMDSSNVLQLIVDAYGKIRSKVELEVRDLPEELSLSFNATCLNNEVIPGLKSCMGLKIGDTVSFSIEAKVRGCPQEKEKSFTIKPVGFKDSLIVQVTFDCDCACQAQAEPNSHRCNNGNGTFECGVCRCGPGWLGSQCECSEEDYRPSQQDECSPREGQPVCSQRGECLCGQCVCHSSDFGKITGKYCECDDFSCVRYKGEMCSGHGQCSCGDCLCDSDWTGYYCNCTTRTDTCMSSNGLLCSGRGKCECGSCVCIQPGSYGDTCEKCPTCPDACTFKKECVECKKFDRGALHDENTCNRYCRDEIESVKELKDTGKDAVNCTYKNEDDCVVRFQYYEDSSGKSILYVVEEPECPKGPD
Description: In addition, as a comparative control, the binding ability (Kd value) of the integrin binding peptide was measured by the SPR method. An integrin binding peptide (SEQ ID NO: 126) was chemically synthesized and immobilized on a CM5 chip (Cytiva, BR100530) by an amine coupling method. The binding ability of the immobilized integrin binding peptide to Recombinant Human Integrin αVβ3 (R&D systems, 3050-AV-050) was measured using Biacore T-100 (Cytiva). As the measurement buffer, an HBS-N buffer (Cytiva, BR100670) in which MgCl₂ was added such that the final concentration was 5 mmol/L, and integrin was added thereto at a concentration of 10, 30, 100, or 300 nmol/L for 10 minutes. The CM5 chip was regenerated and used by repeating the addition of 500 mmol/L EDTA for 10 minutes twice.

Molecule	Biosynthesis amount of fusion protein [1]	Biosynthesis amount of fusion protein [2]	increase of biosynthesis amount of the fusion protein ([1]; Example 1, versus control without tag, 1 hour)	Kd [3]
SEQ ID NO: 48: VKKX tag, amino acid sequence VKKTKTKTKK (VKKX Tag)	10.47	36.08	–	–
SEQ ID NO: 46: VKKX tag, amino acid sequence VKKTKTKKTK (VKKX Tag)	9.94	23.47	–	–
SEQ ID NO: 37: VKKX tag, amino acid sequence VKKTKTKKD (VKKX Tag)	11.45	19.84	–	–
SEQ ID NO: 31: VKKX tag, amino acid sequence VKKTKTKT (VKKX Tag)	9.08	15.48	–	–
SEQ ID NO: 47: VKKX tag, amino acid sequence VKKTKTKKDK (VKKX Tag)	8.90	15.53	–	–
SEQ ID NO: 52: VKKX tag, amino acid sequence VKKTKTKTDTT (VKKX Tag)	4.33	9.15	4.3 times	–
SEQ ID NO: 28: VKKX tag, amino acid sequence VKKTKTT (VKKX Tag)	6.28	16.65	–	–
SEQ ID NO: 30: VKKX tag, amino acid sequence VKKTKTKK (VKKX Tag)	9.01	24.42	–	–
B1	–	–	–	7.6 nM
